Experimental data as given in patent US20260176289A1, “SMALL MOLECULE INHIBITORS OF KRAS PROTEINS” (Merck Sharp & Dohme LLC, priority 2022, published 2026).

Experiments:
Format in all cases: biochemical
[1] = biological target: T1, KRAS G12D (amino acids 1-169) (Homo sapiens, UniProt P01116, G12D); assay: SOS-catalyzed nucleotide exchange assay (Procedure B, BODIPY FL GDP displacement), KRAS G12D; details: read-out: KRAS G12D GNE IC50
T1 construct: made in house; host or cells: E. coli
Procedure: (§1) Procedure for SOS-Catalyzed Nucleotide Exchange Assay for KRAS-G12C/D/V/WT (Procedure B)
(§2) Recombinant KRAS G12C (amino acids 1-169, SEQ ID NO:9), KRAS G12D (amino acids 1-169, SEQ ID NO: 10), KRAS G12V (amino acids 1-169, SEQ ID NO: 11), KRAS WT (amino acids 1-169, SEQ ID NO:12) and SOS1 (amino acids 564-1049, SEQ ID NO: 13) proteins were expressed in E. coli and purified by affinity chromatography. To prepare each BODIPY™ FL GDP-bound KRAS protein, 50 μM KRAS proteins were incubated with 0.5 mM BODIPY™ FL GDP (Invitrogen, G22360) in a loading buffer (20 mM Tris-HCl pH 7.5, 50 mM NaCl, 1 mM DTT and 2.5 mM EDTA) for 1 hour on ice. After the incubation, MgCl2 was added to a final concentration of 10 mM, followed by an incubation at room temperature for 30 minutes. The mixtures were allowed to pass through a NAP-5 column to remove free nucleotides and purified BODIPY™ FL GDP-bound KRAS G12C, G12D, G12V and WT proteins were used for compound evaluation.
(§3) The inhibitory activity of compounds on recombinant KRAS is measured by the displacement of the bound BODIPY™ GDP. Specifically, 2.5 nM of each BODIPY™ FL GDP-bound KRAS complex was incubated with various concentrations of compound in a reaction buffer (20 mM Tris-HCl pH 7.5, 100 mM NaCl, 1 mM MgCl2, 2 mM DTT, 0.1% Tween 20) at 25° C. for 1 hour. After the incubation, recombinant SOS1 and GMPPNP (Jena Bioscience GmbH, NU-401) were added and incubated at room temperature for 30 minutes to proceed SOS1-dependent GDP-GTP exchange reaction on KRAS. Displacement of BODIPY™ FL GDP by Guanosine-5′-[(β,γ)-imido]triphosphate, Tetralithium salt (GMPPNP) was measured by calculating the ratio of fluorescence intensities of BODIPY™ FL before and after the exchange reaction. Percent Inhibition was calculated by setting the fluorescence ratio from the reaction without test compound (DMSO control) and the fluorescence ratio from the reaction without SOS1 and GMPPNP as 0% and 100% inhibition, respectively. Dose response curves were analyzed using a 4-parameter logistic model to calculate IC50 values.

[2] = biological target: T2, KRAS WT (amino acids 1-169) (Homo sapiens, UniProt P01116); assay: SOS-catalyzed nucleotide exchange assay (Procedure B, BODIPY FL GDP displacement), KRAS WT; details: read-out: KRAS WT GNE IC50
T2 construct: made in house; host or cells: E. coli
T2 sequence (P01116 with tags, fused parts or gaps isoform P01116-2): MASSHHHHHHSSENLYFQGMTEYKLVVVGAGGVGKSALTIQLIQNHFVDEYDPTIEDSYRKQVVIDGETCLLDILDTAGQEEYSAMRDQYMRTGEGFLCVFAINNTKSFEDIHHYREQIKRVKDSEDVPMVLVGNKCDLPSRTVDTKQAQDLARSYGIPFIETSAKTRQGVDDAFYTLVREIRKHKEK
Procedure: as §1, §2, §3

[3] = biological target: T3, KRAS G12C (amino acids 1-169) (Homo sapiens, UniProt P01116, G12C); assay: SOS-catalyzed nucleotide exchange assay (Procedure B, BODIPY FL GDP displacement), KRAS G12C; details: read-out: KRAS G12C GNE IC50
T3 construct: made in house; host or cells: E. coli
T3 sequence (P01116 with tags, fused parts or gaps isoform P01116-2 G12C): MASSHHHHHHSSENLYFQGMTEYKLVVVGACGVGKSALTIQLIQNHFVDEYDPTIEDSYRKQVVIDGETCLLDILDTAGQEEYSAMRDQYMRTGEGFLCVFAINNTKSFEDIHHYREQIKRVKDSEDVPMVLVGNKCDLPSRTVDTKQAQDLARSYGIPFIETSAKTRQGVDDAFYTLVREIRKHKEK
Procedure: as §1, §2, §3

[4] = biological target: T4, KRAS G12V (amino acids 1-169) (Homo sapiens, UniProt P01116, G12V); assay: SOS-catalyzed nucleotide exchange assay (Procedure B, BODIPY FL GDP displacement), KRAS G12V; details: read-out: KRAS G12V GNE IC50
T4 construct: made in house; host or cells: E. coli
T4 sequence (P01116 with tags, fused parts or gaps isoform P01116-2 G12V): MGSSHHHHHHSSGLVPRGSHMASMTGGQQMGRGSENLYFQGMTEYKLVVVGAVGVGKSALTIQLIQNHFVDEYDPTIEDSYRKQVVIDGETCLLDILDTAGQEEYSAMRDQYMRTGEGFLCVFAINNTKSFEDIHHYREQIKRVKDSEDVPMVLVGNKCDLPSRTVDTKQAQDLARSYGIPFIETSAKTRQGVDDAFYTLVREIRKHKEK
Procedure: as §1, §2, §3

T1 sequence (P01116 with tags, fused parts or gaps isoform P01116-2 G12D): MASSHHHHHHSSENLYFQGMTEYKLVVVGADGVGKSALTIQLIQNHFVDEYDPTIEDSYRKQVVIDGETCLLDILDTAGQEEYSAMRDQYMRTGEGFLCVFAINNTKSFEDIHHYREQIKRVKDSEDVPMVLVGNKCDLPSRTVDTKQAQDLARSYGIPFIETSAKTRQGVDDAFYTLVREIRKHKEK

SMILES | IC50 [1] [nM] | IC50 [2] [nM] | IC50 [3] [nM] | IC50 [4] [nM]
C[C@@]1(O)COCCN(c2nc(OC[C@@]34CCCN3C[C@H](F)C4)nc3sc4c(-c5c(C6(F)CC6)c(C6CC6)cc6[nH]ncc56)nccc4c23)C1 [Ex-57, (6S)-4-(8-(6-cyclopropyl-5-(1-fluorocyclopropyl)-1H-indazol-4-yl)-2-(((2R,7aS)-2-fluorotetrahydro-1H-pyrrolizin-7a(5H)-yl)methoxy)pyrido[4′,3′: 4,5]thieno[2,3-d]pyrimidin-4-yl)-6-methyl-1,4-oxazepan-6-ol] | 26.9 | 29.3 | 62.5 | 41.3
C[C@@]1(O)COCCN(c2nc(OC[C@@]34CCCN3C[C@H](F)C4)nc3sc4c(-c5c(-c6ccco6)c(Cl)cc6[nH]ncc56)nncc4c23)C1 [Ex-282] | 4.26 | 13.5 | 5.84 | 12.5
Cc1cc2[nH]ncc2c(-c2nccn3c2c(F)c2nc(OC[C@@]45CCCN4C[C@H](F)C5)nc(N4CCOC[C@@](C)(O)C4)c23)c1C1CC1 [Ex-306, (S)-4-(9-(5-cyclopropy1-6-methyl-1H-indazol-4-yl)-10-fluoro-2-(((2R,7aS)-2-fluorotetrahydro-1H-pyrrolizin-7a(5H)-yl)methoxy)pyrazino[1′2′:1,5]pyrrolo[3,2-d]pyrimidin-4-yl)-6-methyl-1,4-oxazepan-6-o1] | 4.7 | 16.6 | 10.8 | 18.9
C[C@@]1(O)COCCN(c2nc(OC[C@@]34CCCN3C[C@H](F)C4)nc3sc4c(-c5c6c(cc7[nH]ncc57)CCC6=O)nccc4c23)C1 [Ex-89, 4-(2-(((2R,7aS)-2-fluorotetrahydro-1H-pyrrolizin-7a(5H)-yl)methoxy)-4-((S)-6-hydroxy-6-methyl-1,4-oxazepan-4-yl)pyrido[4′,3′:4,5]thieno [2,3-d]pyrimidin-8-yl)-6,7-dihydrocyclopenta[f]inda-zol-5(1H)-one] | 80 | 171 | 138 | 245

The remaining lines, values ahead:

IC50 [1] [nM] | IC50 [2] [nM] | IC50 [3] [nM] | IC50 [4] [nM] | SMILES
18.7 | 34.1 | 44.4 | 38.1 | C[C@@]1(O)COCCN(c2nc(OC[C@@]34CCCN3C[C@H](F)C4)nc3sc4c(-c5c6c(cc7[nH]ncc57)CCC6)nccc4c23)C1 [Ex-111, (6S)-4-(2-(((2R,7aS)-2-fluorotetrahydro-1H-pyrrolizin-7a(5H)-yl)methoxy)-8-(1,5,6,7-tetrahydrocyclopenta[f]in-dazol-4-yl)pyrido[4′,3′:4,5]thieno [2,3-d]pyrimidin-4-yl)-6-methyl-1,4-oxazepan-6-ol]
88.5 | 150 | 177 | 123 | CC1Cc2cc3[nH]ncc3c(-c3nccc4c3sc3nc(OC[C@@]56CCCN5C[C@H](F)C6)nc(N5CCOC[C@@](C)(O)C5)c34)c2C1 (stereo partly drawn) [Ex-113, (6S)-4-(2-(((2R,7aS)-2-fluorotetrahydro-1H-pyrrolizin-7a(5H)-yl)methoxy)-8-(6-methyl-1,5,6,7-tetrahydrocyclopenta[f]in-dazol-4-yl)pyrido[4′,3′:4,5]thieno [2,3-d]pyrimidin-4-yl)-6-methy1-1,4-oxazepan-6-ol]
37.7 | 47.5 | 57.7 | 43 | COC1c2c(cc3[nH]ncc3c2-c2nccc3c2sc2nc(OC[C@@]45CCCN4C[C@H](F)C5)nc(N4CCOC[C@@](C)(O)C4)c23)CC1(F)F (stereo partly drawn) [Ex-110, (6S)-4-(8-(6,6-difluoro-5-methoxy-1,5,6,7-tetrahydrocyclopenta[f]in-dazol-4-yl)-2-(((2R,7aS)-2-fluorotetrahydro-1H-pyrrolizin-7a(5H)-yl)methoxy)pyrido[4′,3′:4,5]thi-no[2,3-d]pyrimidin-4-yl)-6-methyl-1,4-oxazepan-6-ol]
3.81 | 6.2 | 19.8 | 9.52 | CC1c2c(cc3[nH]ncc3c2-c2nccc3c2sc2nc(OC[C@@]45CCCN4C[C@H](F)C5)nc(N4CCOC[C@@](C)(O)C4)c23)CC1(F)F (single isomer, unassigned) [Ex-107]
